Columns and labels:
Assay in all cases: DSF
Assay type in all cases: binding
AAK1 = target: T1, AAK1 (Homo sapiens, UniProt Q2M2I8)
T1 construct: purchased in-house DSF panel (SGC Frankfurt)
Protocol: (§1) Recombinant protein kinase domains with a concentration of 2 μM were mixed with a 10 μM compound solution in DMSO, 20 mM HEPES, pH 7.5, and 500 mM NaCl. SYPRO Orange (5000×, Invitrogen) was added as a fluorescence probe (1 µl per mL). Subsequently, temperature-dependent protein unfolding profiles were measured, using the QuantStudio™ 5 realtime PCR machine (Thermo Fisher, Waltham, MA, USA). […] The temperature was raised with a step rate of 3 °C per minute. Data points were analyzed with the internal software (Thermal Shift SoftwareTM Version 1.4, Thermo Fisher) using the Boltzmann equation to determine the inflection point of the transition curve [56]. Differences in melting temperature are given as ΔTm values in °C. Measurements were performed in duplicates.

GSG2 = target: T2, GSG2 (Homo sapiens, UniProt Q8TF76)
T2 construct: purchased in-house DSF panel (SGC Frankfurt)
T2 sequence (Q8TF76 465-798): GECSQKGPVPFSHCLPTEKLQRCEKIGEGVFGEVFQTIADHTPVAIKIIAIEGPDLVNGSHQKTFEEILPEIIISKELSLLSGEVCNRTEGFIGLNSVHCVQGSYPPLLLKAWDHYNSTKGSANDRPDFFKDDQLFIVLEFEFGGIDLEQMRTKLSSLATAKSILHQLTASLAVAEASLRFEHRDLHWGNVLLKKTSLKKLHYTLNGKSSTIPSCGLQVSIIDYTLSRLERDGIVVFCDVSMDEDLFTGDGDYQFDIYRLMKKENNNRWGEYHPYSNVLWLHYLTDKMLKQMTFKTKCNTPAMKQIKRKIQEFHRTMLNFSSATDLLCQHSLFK
Protocol: as §1

DAPK3 = target: T3, DAPK3 (Homo sapiens, UniProt O43293)
T3 construct: purchased in-house DSF panel (SGC Frankfurt)
Protocol: as §1

CSNK1D = target: T4, CSNK1D (Homo sapiens, UniProt P48730);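 also: compound tested at 10 µM with 2 µM protein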
T4 construct: purchased in-house DSF panel (SGC Frankfurt)
T4 sequence (P48730 1-294): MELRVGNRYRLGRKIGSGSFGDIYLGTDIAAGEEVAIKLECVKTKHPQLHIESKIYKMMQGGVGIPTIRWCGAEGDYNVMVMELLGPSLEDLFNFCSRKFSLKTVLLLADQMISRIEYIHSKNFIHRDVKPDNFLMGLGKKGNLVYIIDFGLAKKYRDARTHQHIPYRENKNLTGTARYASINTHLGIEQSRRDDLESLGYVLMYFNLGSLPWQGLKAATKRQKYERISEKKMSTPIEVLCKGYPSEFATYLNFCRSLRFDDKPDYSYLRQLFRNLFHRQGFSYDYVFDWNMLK
Protocol: as §1

TTK = target: T5, TTK (Homo sapiens, UniProt P33981);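 also: compound tested at 10 µM with 2 µM protein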
T5 construct: purchased in-house DSF panel (SGC Frankfurt)
T5 sequence (P33981 519-808): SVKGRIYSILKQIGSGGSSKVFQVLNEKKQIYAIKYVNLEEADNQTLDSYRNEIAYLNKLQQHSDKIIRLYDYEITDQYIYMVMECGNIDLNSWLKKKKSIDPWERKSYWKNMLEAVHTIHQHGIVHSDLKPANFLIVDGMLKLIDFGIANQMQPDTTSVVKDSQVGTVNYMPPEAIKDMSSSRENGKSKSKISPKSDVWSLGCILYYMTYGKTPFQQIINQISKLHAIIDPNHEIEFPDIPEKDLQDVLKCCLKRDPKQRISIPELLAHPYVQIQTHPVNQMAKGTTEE
Protocol: as §1

GSK3B = GSK3B (Homo sapiens, UniProt P49841); set-up: purchased in-house DSF panel (SGC Frankfurt); details: 10 μM compound
Method in brief: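 Differential scanning fluorimetry follows unfolding of the protein through fluorescence of a dye that depends on folding state. The value is ΔTm, the melting-temperature shift between compound-free and compound-bound protein. Duplicate measurements.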

MARK3 = target: T6, MARK3 (Homo sapiens, UniProt P27448)
T6 construct: purchased in-house DSF panel (SGC Frankfurt)
Protocol: as §1

CAMKK2 = target: T7, CAMKK2 (Homo sapiens, UniProt Q96RR4)
T7 construct: purchased in-house DSF panel (SGC Frankfurt)
Protocol: as §1

EPHA2 = target: T8, EPHA2 (Homo sapiens, UniProt P29317)
T8 construct: purchased in-house DSF panel (SGC Frankfurt)
T8 sequence (P29317 596-900): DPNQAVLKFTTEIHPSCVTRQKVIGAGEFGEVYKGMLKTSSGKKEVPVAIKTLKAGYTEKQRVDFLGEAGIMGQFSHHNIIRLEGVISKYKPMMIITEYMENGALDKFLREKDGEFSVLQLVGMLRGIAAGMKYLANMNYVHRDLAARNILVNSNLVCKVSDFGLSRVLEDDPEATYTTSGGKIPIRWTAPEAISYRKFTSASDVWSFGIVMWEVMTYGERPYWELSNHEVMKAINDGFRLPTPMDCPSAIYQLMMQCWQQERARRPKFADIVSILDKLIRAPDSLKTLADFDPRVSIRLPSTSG
Protocol: as §1

TAF1 = tested on: TAF1;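 also: compound tested at 10 µM with 2 µM protein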
Protocol: as §1

BMPR2 = target: T9, BMPR2 (Homo sapiens, UniProt Q13873)
T9 construct: purchased in-house DSF panel (SGC Frankfurt)
T9 sequence (Q13873 27-1038): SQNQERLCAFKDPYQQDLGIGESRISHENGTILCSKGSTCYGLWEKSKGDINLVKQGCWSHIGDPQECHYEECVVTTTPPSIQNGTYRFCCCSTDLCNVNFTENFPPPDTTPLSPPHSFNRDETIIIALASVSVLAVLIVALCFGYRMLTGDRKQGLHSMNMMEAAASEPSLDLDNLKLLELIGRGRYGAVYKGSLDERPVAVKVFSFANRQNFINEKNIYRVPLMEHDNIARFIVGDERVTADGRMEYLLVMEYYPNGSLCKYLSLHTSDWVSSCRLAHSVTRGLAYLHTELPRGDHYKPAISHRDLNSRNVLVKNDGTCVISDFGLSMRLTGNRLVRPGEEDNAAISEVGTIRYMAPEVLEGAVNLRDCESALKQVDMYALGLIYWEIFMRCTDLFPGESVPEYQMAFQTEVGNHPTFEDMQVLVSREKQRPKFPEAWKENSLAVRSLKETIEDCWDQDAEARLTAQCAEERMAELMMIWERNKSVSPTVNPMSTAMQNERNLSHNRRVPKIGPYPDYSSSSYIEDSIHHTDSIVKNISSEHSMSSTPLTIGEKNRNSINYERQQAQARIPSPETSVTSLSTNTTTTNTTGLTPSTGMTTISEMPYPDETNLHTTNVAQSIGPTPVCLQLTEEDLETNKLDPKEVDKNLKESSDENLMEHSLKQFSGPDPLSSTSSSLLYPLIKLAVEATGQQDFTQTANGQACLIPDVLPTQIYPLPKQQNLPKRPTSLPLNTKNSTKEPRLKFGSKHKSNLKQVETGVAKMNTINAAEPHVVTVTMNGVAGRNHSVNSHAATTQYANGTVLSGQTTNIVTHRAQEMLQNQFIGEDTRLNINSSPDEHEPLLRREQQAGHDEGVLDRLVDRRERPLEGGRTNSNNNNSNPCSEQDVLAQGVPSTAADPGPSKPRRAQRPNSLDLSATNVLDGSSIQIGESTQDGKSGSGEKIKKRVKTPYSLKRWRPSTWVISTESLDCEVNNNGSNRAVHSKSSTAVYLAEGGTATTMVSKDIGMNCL
Protocol: as §1

Sequence of GSK3B (P49841 35-386): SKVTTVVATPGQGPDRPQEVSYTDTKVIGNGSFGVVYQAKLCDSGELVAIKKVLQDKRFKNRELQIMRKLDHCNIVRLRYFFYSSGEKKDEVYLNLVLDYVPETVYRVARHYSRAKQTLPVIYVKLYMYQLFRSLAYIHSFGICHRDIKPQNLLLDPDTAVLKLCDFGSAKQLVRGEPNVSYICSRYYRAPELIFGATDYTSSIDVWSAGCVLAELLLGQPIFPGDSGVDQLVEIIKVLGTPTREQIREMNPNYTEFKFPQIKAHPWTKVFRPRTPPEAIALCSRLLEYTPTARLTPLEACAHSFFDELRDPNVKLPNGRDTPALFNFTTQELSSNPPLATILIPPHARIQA
T3 sequence (O43293 9-289): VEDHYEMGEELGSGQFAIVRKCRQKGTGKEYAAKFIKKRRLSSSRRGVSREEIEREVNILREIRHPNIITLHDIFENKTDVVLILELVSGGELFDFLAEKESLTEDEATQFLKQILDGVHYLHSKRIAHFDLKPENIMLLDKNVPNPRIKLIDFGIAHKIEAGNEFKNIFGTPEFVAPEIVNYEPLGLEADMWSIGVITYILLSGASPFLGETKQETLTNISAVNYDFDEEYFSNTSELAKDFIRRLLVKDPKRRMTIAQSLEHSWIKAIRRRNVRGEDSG
T7 sequence (Q96RR4 161-449): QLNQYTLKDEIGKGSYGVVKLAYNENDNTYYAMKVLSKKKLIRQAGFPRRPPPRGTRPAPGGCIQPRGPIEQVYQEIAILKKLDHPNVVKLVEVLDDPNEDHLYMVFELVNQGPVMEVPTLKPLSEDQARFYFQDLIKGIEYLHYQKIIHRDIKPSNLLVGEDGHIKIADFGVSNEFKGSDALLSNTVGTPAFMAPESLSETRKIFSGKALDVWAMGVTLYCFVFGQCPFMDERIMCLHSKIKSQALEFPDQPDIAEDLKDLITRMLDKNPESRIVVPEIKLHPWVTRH
T1 sequence (Q2M2I8 27-365): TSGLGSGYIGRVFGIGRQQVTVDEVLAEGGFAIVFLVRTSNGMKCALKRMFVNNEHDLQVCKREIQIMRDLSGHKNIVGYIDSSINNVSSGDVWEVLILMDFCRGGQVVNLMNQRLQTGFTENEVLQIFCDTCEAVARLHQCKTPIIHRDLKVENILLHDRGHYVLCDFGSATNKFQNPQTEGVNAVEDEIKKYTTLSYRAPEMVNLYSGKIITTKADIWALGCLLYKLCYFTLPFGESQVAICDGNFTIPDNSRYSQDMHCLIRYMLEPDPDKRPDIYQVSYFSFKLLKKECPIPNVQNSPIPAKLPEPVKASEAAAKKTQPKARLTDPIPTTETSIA
T6 sequence (P27448 whole entry): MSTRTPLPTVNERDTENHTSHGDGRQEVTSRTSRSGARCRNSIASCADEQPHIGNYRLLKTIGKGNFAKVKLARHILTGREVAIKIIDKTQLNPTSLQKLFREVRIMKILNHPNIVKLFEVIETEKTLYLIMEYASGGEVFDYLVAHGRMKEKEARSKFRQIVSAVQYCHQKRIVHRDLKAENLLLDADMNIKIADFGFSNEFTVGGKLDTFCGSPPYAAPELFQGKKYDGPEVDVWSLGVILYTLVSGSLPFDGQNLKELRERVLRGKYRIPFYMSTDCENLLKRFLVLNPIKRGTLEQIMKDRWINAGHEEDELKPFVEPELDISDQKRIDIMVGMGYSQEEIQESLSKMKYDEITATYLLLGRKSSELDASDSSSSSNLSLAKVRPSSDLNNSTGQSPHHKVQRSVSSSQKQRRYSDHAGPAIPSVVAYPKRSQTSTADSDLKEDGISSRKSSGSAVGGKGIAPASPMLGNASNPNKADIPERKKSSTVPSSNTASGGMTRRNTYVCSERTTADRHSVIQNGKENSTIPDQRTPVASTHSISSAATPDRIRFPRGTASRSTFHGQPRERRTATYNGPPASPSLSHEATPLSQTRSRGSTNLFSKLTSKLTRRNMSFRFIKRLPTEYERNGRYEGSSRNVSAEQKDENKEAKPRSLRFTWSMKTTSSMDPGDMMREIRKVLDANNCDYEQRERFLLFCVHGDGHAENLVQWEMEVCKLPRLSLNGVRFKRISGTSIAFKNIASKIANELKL

Structure (SMILES)	ΔTm AAK1 (AAK1) [°C]	ΔTm GSG2 (GSG2) [°C]	ΔTm DAPK3 (DAPK3) [°C]	ΔTm CSNK1D (CSNK1D) [°C]	ΔTm TTK (TTK) [°C]	ΔTm at 10 µM (GSK3B) [°C]	ΔTm MARK3 (MARK3) [°C]	ΔTm CAMKK2 (CAMKK2) [°C]	ΔTm EPHA2 (EPHA2) [°C]	ΔTm TAF1 (TAF1) [°C]	ΔTm BMPR2 (BMPR2) [°C]
COC(=O)c1cc(Nc2ccnc(NCCOCCNC(=O)OC(C)(C)C)n2)[nH]n1 [21d, methyl 5-((2-((2-(2-((tert-butoxycarbonyl)amino)ethoxy)ethyl)amino)pyrimidin-4-yl)amino)-1H-pyrazole-3-carboxylate]	4.1	0.2	3.3	0.2	1.6	6.2	2.5	0.5	0.2	0.0	0.7
N#CCc1ccc(Nc2nccc(Nc3cc(C4CC4)[nH]n3)n2)cc1 [compound 1, reference compound]	13.8	2.9	9.7	3.1	8.8	14	8.1	12.0	8.4	0.1	9.2
CC(C)(C)OC(=O)Nc1ccc(CNc2nccc(Nc3cc(C(=O)OC(C)(C)C)[nH]n3)n2)cc1 [43d, tert-butyl 3-((2-((4-((tert-butoxycarbonyl)amino)benzyl)amino)pyrimidin-4-yl)amino)-1H-pyrazole-5-carboxylate]	1.0	-0.3	0.3	1.0	-0.2	2.9	-0.5	0.1	1.3	0.0	1.4
COC(=O)c1cc(Nc2ccnc(NCc3ccc(NC(=O)OC(C)(C)C)cc3)n2)[nH]n1 [21i, methyl 5-((2-((4-((tert-butoxycarbonyl)amino)benzyl)amino)pyrimidin-4-yl)amino)-1H-pyrazole-3-carboxylate]	2.0	-0.2	-0.6	0.4	0.0	7.2	1.5	1.1	0.4	0.2	1.1
CC(C)OC(=O)c1cc(Nc2ccnc(NCc3ccc(NC(=O)OC(C)(C)C)cc3)n2)n[nH]1 [42d, isopropyl 3-((2-((4-((tert-butoxycarbonyl)amino)benzyl)amino)pyrimidin-4-yl)amino)-1H-pyrazole-5-carboxylate]	0.5	0.5	0.1	0.8	-0.1	4.7	-0.4	-0.6	0.6	0.5	0.9

From publication PMC9736855, “Discovery of 3-Amino-1H-pyrazole-Based Kinase Inhibitors to Illuminate the Understudied PCTAIRE Family” (International Journal of Molecular Sciences, 2022)
